Measurements: article PMC7093416, “Selective USP7 inhibition elicits cancer cell killing through a p53-dependent mechanism” (Scientific Reports, 2020)

Test system: panel of 484 cancer cell lines
Test: PRISM cancer cell line profiling, 5 days
Format: cell-based
Parameters: AUC: unit not given beside the values
Experimental: Cancer cell line profiling was performed using the Broad’s PRISM platform. Cell treatment and data analysis were performed as described in Yu et al[42]. Raw Luminex signal was converted to AUC values for each cell line as described. The resulting AUC profile for each compound was modeled against DepMap using the limma package in R[71]. Because hotspot mutation analysis was performed against DepMap, TP53 annotations in Fig. 6c,d are directly from DepMap.

CN1CCN(CCC(=O)Nc2ccc3c(=O)n(CC4(O)CCN(C(=O)[C@@H](CCCNC(=O)c5ccc6c(Cl)c7c(nc6c5)CCCC7)Cc5ccccc5)CC4)cnc3c2)CC1 [XL177A]
AUC (8MGBA_CENTRAL_NERVOUS_SYSTEM): 1.174
AUC (22RV1_PROSTATE): 0.9618
AUC (42MGBA_CENTRAL_NERVOUS_SYSTEM): 1
AUC (253JBV_URINARY_TRACT): 0.9502
AUC (253J_URINARY_TRACT): 1.095
AUC (639V_URINARY_TRACT): 0.832
AUC (647V_URINARY_TRACT): 1.06
AUC (769P_KIDNEY): 1.126
AUC (786O_KIDNEY): 1.266
AUC (5637_URINARY_TRACT): 1.038
AUC (8305C_THYROID): 1.048
AUC (8505C_THYROID): 0.9221
AUC (2313287_STOMACH): 1.154
AUC (A101D_SKIN): 1.013
AUC (A172_CENTRAL_NERVOUS_SYSTEM): 0.8471
AUC (A204_SOFT_TISSUE): 0.8422
AUC (A375_SKIN): 1.23
AUC (A549_LUNG): 0.8217
AUC (A673_BONE): 1.349
AUC (A704_KIDNEY): 1.109
AUC (A2058_SKIN): 0.9507
AUC (A2780_OVARY): 0.804
AUC (ABC1_LUNG): 1.07
AUC (ACCMESO1_PLEURA): 1.035
AUC (ACHN_KIDNEY): 1.124
AUC (AGS_STOMACH): 0.9408
AUC (AN3CA_ENDOMETRIUM): 0.9198
AUC (ASPC1_PANCREAS): 1.1544
AUC (BC3C_URINARY_TRACT): 1.1182
AUC (BCPAP_THYROID): 0.9965
AUC (BECKER_CENTRAL_NERVOUS_SYSTEM): 0.8518
AUC (BEN_LUNG): 1.124
AUC (BFTC905_URINARY_TRACT): 0.8686
AUC (BFTC909_KIDNEY): 0.9138
AUC (BHT101_THYROID): 0.9801
AUC (BICR6_UPPER_AERODIGESTIVE_TRACT): 0.8445
AUC (BICR16_UPPER_AERODIGESTIVE_TRACT): 0.8236
AUC (BICR31_UPPER_AERODIGESTIVE_TRACT): 0.8691
AUC (BICR56_UPPER_AERODIGESTIVE_TRACT): 0.8298
AUC (BT474_BREAST): 1.426
AUC (BT549_BREAST): 0.9189
AUC (BXPC3_PANCREAS): 1.188
AUC (CADOES1_BONE): 1.097
AUC (CAKI1_KIDNEY): 1.0035
AUC (CAL12T_LUNG): 1.065
AUC (CAL27_UPPER_AERODIGESTIVE_TRACT): 0.8579
AUC (CAL29_URINARY_TRACT): 0.9717
AUC (CAL51_BREAST): 0.9698
AUC (CAL54_KIDNEY): 1.122
AUC (CAL62_THYROID): 0.9897
AUC (CAL78_BONE): 0.8669
AUC (CAL120_BREAST): 0.8877
AUC (CALU1_LUNG): 1.403
AUC (CALU6_LUNG): 0.9933
AUC (CAMA1_BREAST): 0.994
AUC (CAOV3_OVARY): 1.046
AUC (CAPAN2_PANCREAS): 1.09
AUC (CCFSTTG1_CENTRAL_NERVOUS_SYSTEM): 0.9028
AUC (CFPAC1_PANCREAS): 1.131
AUC (CHL1_SKIN): 1.028
AUC (CJM_SKIN): 0.9117
AUC (CL34_LARGE_INTESTINE): 1.2091
AUC (COLO668_LUNG): 0.9325
AUC (COLO679_SKIN): 0.9271
AUC (COLO680N_OESOPHAGUS): 0.903
AUC (COLO741_SKIN): 1.181
AUC (COLO783_SKIN): 0.896
AUC (COLO792_SKIN): 1.217
AUC (COLO800_SKIN): 0.9306
AUC (CORL23_LUNG): 0.9099
AUC (CORL105_LUNG): 0.9151
AUC (COV362_OVARY): 0.9501
AUC (COV434_OVARY): 0.6134
AUC (DANG_PANCREAS): 1.103
AUC (DAOY_CENTRAL_NERVOUS_SYSTEM): 0.9019
AUC (DBTRG05MG_CENTRAL_NERVOUS_SYSTEM): 0.986
AUC (DETROIT562_UPPER_AERODIGESTIVE_TRACT): 0.8984
AUC (DKMG_CENTRAL_NERVOUS_SYSTEM): 1.055
AUC (DMS273_LUNG): 0.9756
AUC (DU145_PROSTATE): 0.9953
AUC (DV90_LUNG): 0.6429
∆ (AUC, TP53 mutation vs WT; decreased sensitivity) (DepMap TP53 mutation annotation): 0.0512
AUC (EBC1_LUNG): 0.8513
AUC (ECGI10_OESOPHAGUS): 1.105
AUC (EFM192A_BREAST): 1.042
AUC (EFO21_OVARY): 0.9443
AUC (EFO27_OVARY): 0.9949
AUC (EN_ENDOMETRIUM): 1.056
AUC (ES2_OVARY): 1.069
AUC (ESS1_ENDOMETRIUM): 0.9952
AUC (EWS502_BONE): 1.4146
AUC (FADU_UPPER_AERODIGESTIVE_TRACT): 1.156
AUC (FTC133_THYROID): 0.8526
AUC (FTC238_THYROID): 0.8658
AUC (G292CLONEA141B1_BONE): 1.276
AUC (G361_SKIN): 1.1047
AUC (G401_SOFT_TISSUE): 0.6407
AUC (G402_SOFT_TISSUE): 0.5799
AUC (GAMG_CENTRAL_NERVOUS_SYSTEM): 1.102
AUC (GB1_CENTRAL_NERVOUS_SYSTEM): 1.09
AUC (GCIY_STOMACH): 1.0232
AUC (GCT_SOFT_TISSUE): 1.012
AUC (GI1_CENTRAL_NERVOUS_SYSTEM): 1.111
AUC (GMS10_CENTRAL_NERVOUS_SYSTEM): 1.007
AUC (GOS3_CENTRAL_NERVOUS_SYSTEM): 0.7415
AUC (GP2D_LARGE_INTESTINE): 1.073
AUC (H4_CENTRAL_NERVOUS_SYSTEM): 0.8128
AUC (HARA_LUNG): 1.29
AUC (HCC15_LUNG): 0.9559
AUC (HCC38_BREAST): 1.2075
AUC (HCC44_LUNG): 0.9515
AUC (HCC56_LARGE_INTESTINE): 1.407
AUC (HCC78_LUNG): 1.024
AUC (HCC95_LUNG): 0.9165
AUC (HCC366_LUNG): 0.9914
AUC (HCC827_LUNG): 0.8612
AUC (HCC1143_BREAST): 1.083
AUC (HCC1195_LUNG): 0.8483
AUC (HCC1359_LUNG): 1.123
AUC (HCC1419_BREAST): 1.047
AUC (HCC1428_BREAST): 0.8065
